Test results reported in patent publication US20220242812A1, “SWELL1-LRRC8 COMPLEX MODULATORS” (Washington University, priority 2019, published 2022).
“Also recorded” adds a separate entry of the source.

How the values were obtained:
[1] = molecular target: T1, SWELL1-LRRC8 channel (ICl,SWELL) in HEK-293 cells (Homo sapiens, UniProt Q8IWT6); assay: ICl,SWELL inhibition after hypotonic activation, patch-clamp in HEK-293 cells; assay type: cell-based
T1 construct: endogenous in cells; host or cells: HEK-293 (ATCC CRL-1573)
Method: Mean presented±SEM. Two-tailed unpaired t-test was used. *, **, and *** represents p<0.05, p<0.01 and p<0.001, respectively.
(§1) Patch-clamp recordings of β-cells and mature adipocytes were performed as described previously (Kang et al., 2018; Zhang et al., 2017). 3T3-F442A WT and KO preadipocytes were prepared as described in the Cell culture section above. For SWELL1 overexpression recordings, preadipocytes were first transduced with Ad5-CAG-LoxP-stop-LoxP-3×Flag-SWELL1 (MOI 12) in 2% FBS culture medium for two days and then overexpression induced by adding Ad5-CMV-Cre-wt-lRES-eGFP (MOI 10-12) in 2% FBS culture medium for two more days and changed to 10% FBS containing culture media and were selected based on GFP expression (˜2-3 days). For cell recordings, islets were transduced with Ad-RIP2-GFP and then dispersed after 48-72 hours for patch-clamp experiments. GFP+ cells marked β-cells selected for patch-clamp recordings. […] Recordings were measured using […] amplifier paired to a Digidata 1550 digitizer using pClamp 10.4 software. The extracellular buffer composition for hypotonic stimulation contains 90 mM NaCl, 2 mM CsCl, 1 mM MgCl, 1 mM CaCb, 10 mM HEPES, 10 mM Mannitol, pH 7.4 with NaOH (210 mOsm/kg). The extracellular isotonic buffer composition is same as above except for Mannitol concentration of 110 mM (300 mOsm/kg). The composition of intracellular buffer is 120 mM L-aspartic acid, 20 mM CsCl, 1 mM MgCl, 5 mM EGTA, 10 mM HEPES, 5 mM MgATP, 120 mM CsOH, 0.1 mM GTP, pH 7.2 with CsOH. All recordings were carried out at room temperature (RT) with HEK-293 cells, β-cells and 3T3-F442A cells performed in whole-cell configuration and human adipocytes in perforated-patch configuration, as previously described (Kang et al., 2018; Zhang et al., 2017).

[2] = molecular target: T2, closed SWELL1-LRRC8 channel in HEK-293 cells (Homo sapiens, UniProt Q8IWT6); assay: ICl,SWELL inhibition on application to the closed SWELL1-LRRC8 channel (30 min preincubation), HEK-293 cells; assay type: cell-based; details: 30 minutes prior to hypotonic activation
T2 construct: endogenous in cells; host or cells: HEK-293 (ATCC CRL-1573)
Method: as §1

[3] = Microsomal metabolic stability assay; assay type: in vitro ADME; details: human liver microsomes; read-out: Human hepatic microsome stability Clintrinsic
Method: In vitro ADMET studies were performed at Charles River Laboratory as outlined below. For the Caco-2 permeability assay, the cells were cultured (DMEM, 10% FBS, 1% L-Glutamax and 1% PenStrep) for 21 days. HBSS was used as the transport buffer and the TEER measurements were taken before the start of the assay. Compounds were added apical side to determine apical to basolateral transport (A-B) and basal side to determine basolateral to apical transport (B-A). Samples (10 μL) were collected at time 0 and 2 h and diluted (5×) with transport buffer. After the quenching reaction, the samples were further diluted in MilliQ water for bioanalysis. […] The analyte levels (peak area ratios) were measured on apical (A) and basolateral (B) sides at To and T2h-A-B and B-A fluxes were calculated averaging 3 individual measurements. Apparent permeability (Papp, cm/sec) was calculated as dQ (flux)/(dt*area*concentration). The efflux ratio was calculated by Papp(B-A)/Papp(B-A). […] The supernatant was diluted in water and further analyzed in LC/MS autosampler. Half-life (T1/2) was calculated by the formula 0.692/slope where slope is ln(% remaining relative to Tzero vs time). Intrinsic clearance was calculated using the (CLn1)=T112*1/initial concentration*mg prep/g liver*g liver/kg body weight. […]

CYP 2C9 = molecular target: T3, CYP 2C9 (Homo sapiens, UniProt P11712); assay: Cytochrome P450 inhibition assay, CYP 2C9; assay type: in vitro ADME; details: human liver microsomes
T3 construct: Human liver microsomes were diluted in Potassium phosphate buffer; tissue Charles River Laboratory (performed the study); host or cells: human liver microsomes

[4] = test system: endogenous SWELL1 plasma membrane localization; assay type: cell-based; details: 3T3-F442A preadipocytes, 1 or 10 μM 48 h, compared to vehicle or SN071
Method: 3T3-F442A preadipocytes (WT, KO) and differentiated adipocytes without or with SWELL1 overexpression (WT+SWELL1 O/E, KO+SWELL1 O/E) were prepared as described in the Cell culture section on collagen coated coverslips. […] Either anti-SWELL1 (1:400) or anti-Flag (1:1500, Sigma #F3165) antibody were added to the cells and incubated overnight at 4° C. The cells were then washed three times (1×PBS) prior and post to the addition of 1:1000 Alexa Flour 488/568 secondary antibody (anti-rabbit, #A11034 or anti-mouse, #A11004) for 1 hour at RT. Cells were counterstained with nuclear TO-PRO-3 (Life Technologies, #T3605) or DAPI (Invitrogen, #D1306) staining (1 μM) for 20 min followed by three washes with 1×PBS. Coverslips were further mounted on slides with Prolong Diamond anti-fading media. All images were captured using Zeiss LSM700/LSM510 confocal microscope with 63× objective (NA 1.4). SWELL1 membrane localization was quantified by stacking all the z-images and converting it into a binary image where the cytoplasmic intensity per unit area was subtracted from the total cell intensity per unit area using ImageJ software.

CYP 3A4 = molecular target: T4, CYP 3A4 (Homo sapiens, UniProt P08684); assay: Cytochrome P450 inhibition assay, CYP 3A4; assay type: in vitro ADME; details: human liver microsomes
T4 construct: Human liver microsomes were diluted in Potassium phosphate buffer; tissue Charles River Laboratory (performed the study); host or cells: human liver microsomes

| SMILES | On-target inhibition of ICl,SWELL ([1]; HEK-293 cells, hypotonic (210 mOsm), 10 and 7 μM, relative to SN-401) | Subsequent hypotonic SWELL1-LRRC8 activation ([2]; 250 nM) | Subsequent hypotonic SWELL1-LRRC8 activation ([2]; 1 μM) | CLint scaled [3] [mL/min/kg] | IC50 (CYP 2C9) [µM] | Plasma membrane (PM) localization of endogenous SWELL1 [4] | IC50 (CYP 3A4) [µM] | Concentration required for inhibiting activated SWELL1-LRRC8 ([1]; upon hypotonic stimulation) [µM] |
| --- | --- | --- | --- | --- | --- | --- | --- | --- |
| CCCCC1(C2CCCC2)Cc2cc(OCCCCCC(=O)O)c(Cl)c(Cl)c2C1=O (centres unmarked) [SN-406, 6-((2-butyl-6,7-dichloro-2-cyclopentyl-1-oxo-2,3-dihydro-1H-inden-5-yl)oxy)hexanoic acid] | maintained or enhanced; also recorded: increase | markedly suppresses and delays | markedly suppresses and delays | 46.4 | > 10 | enhanced | > 10 |  |
| CCCCC1(C2CCCC2)Cc2cc(OCCCC(=O)O)c(Cl)c(Cl)c2C1=O (centres unmarked) [SN-401, 4-((2-butyl-6,7-dichloro-2-cyclopentyl-1-oxo-2,3-dihydro-1H-inden-5-yl)oxy)butanoic acid] |  | markedly suppresses and delays | markedly suppresses and delays | 72.7 | < 10 | enhanced | > 10 | ~10 |
